Among the data in article PMC7155171, “Probing the Open Global Health Chemical Diversity Library for Multistage-Active Starting Points for Next-Generation Antimalarials” (ACS Infectious Diseases, 2020) are IC50, inhibition and Emax values, retold here.

Read-outs that look alike come from different tables or passages of the source.

Experiment [1] has as its system P. falciparum (NF54) stage V gametocytes. Kind of experiment: Stage V gametocyte viability assay (MitoTracker Red CMXRos high content imaging). The experiment is classed as cell-based, Plasmodium falciparum. Particulars: Plasmodium falciparum, NF54, 72 h; for inhibition at 2 µM: read-out: Stg V Gam primary screen: Inhibition % (2uM) (n=2).
Experiment [2] has as its system HepG2-A16-CD81 hepatocytes. Description: cells. Also noted: Uninfected hepatocyte viability, CellTiter-Glo luminescence. As to conditions: sheet CDD Export 1;, cytotoxicity primary screen, read-out: Table S5. Liver stage reconfirmation data / HepG2 Cytotoxicity primary screen (2uM): % Inhibition. As for the experimental part: For the screen, 5 μL of HepG2-A16-CD81 hepatocytes containing 3 × 10^3 cells was seeded into 1536-well plates, which had been prespotted with 10 nL of library compound (2 μM final assay concentration (Figure 1)) and incubated overnight. For PbLuc infected plates, approximately 750 purified sporozoites in 5 μL of screening media were added to each well and incubated for 48 h before measuring luciferase activity. Compounds were tested for toxicity in parallel (see Methods) by measuring uninfected hepatocyte viability using CellTiter-Glo. […] This hit rate was slightly lower than expected for an agnostic library, which prompted us to rescreen the entire library at 10 μM. The PbLuc and cytotoxicity assay plates for this second replicate would be stamped in-house with 50 nL of library compound per well, using the same compound plates as the sexual stage screen described below. All the assay parameters were kept similar, except the change in concentration and shortening the time the compounds spent in each well prior to infection. […] All potential false positive effectors from the CellTiter-Glo assay were filtered from subsequent studies (Table S1). Naturally, there were more primary hits from the 10 μM than the 2 μM screen due to the higher testing concentration. For reconfirmation, we sourced all the hits that inhibited PbLuc at >70% and mean HepG2 at <50% in the 2 μM screen or PbLuc at >60% in both 2 and 10 μM screens and mean HepG2 at <50%. The resulting compounds were acquired as DMSO stocks and retested in the dose response (50–2.82 × 10^–4 μM or 25–141.13 × 10^–6 μM) against PbLuc and uninfected hepatocytes (Table S5). […] The majority of these compounds were weak inhibitors, although 18 submicromolar hits were found (Table S5).

Experiment [3] has as its system P. falciparum Dd2 (PfLuc) line expressing firefly luciferase, asexual blood stage. Kind of experiment: microbe, parasite or virus in culture. The experiment is classed as cell-based, Plasmodium falciparum. Particulars: Plasmodium falciparum.
The subject of experiment [4] is P. falciparum Dd2. Description: SYBR green I asexual blood stage proliferation assay (96 h). As to conditions: Plasmodium falciparum, DD2, 11-pt dose response, 96hr. The experiment is classed as cell-based, Plasmodium falciparum.
Experiment [5] deals with P. falciparum Dd2 (PfLuc) line expressing firefly luciferase, asexual blood stage. Description: microbe, parasite or virus in culture. Also noted: species or system P. falciparum Dd2-luciferase in human red blood cells; PfLuc Dd2 asexual blood stage luciferase viability, BrightGlo luminescence, 96 h. Particulars: Plasmodium falciparum, DD2, Erythrocyte; 8-point, 96 h, DMSO stocks; read-out: CDD P. falciparum Luciferase ABS 8-pt Reconfirmation Dose Response (96hr): IC50. As for the experimental part: A transgenic line of Plasmodium falciparum (Dd2) constitutively expressing firefly luciferase was used for primary and reconfirmation screening. Cultures were maintained in complete media at 5% hematocrit (Human Whole Blood O+) and incubated at 37 °C in a low oxygen environment (3% O2, 5% CO2, and 92% N2). Culture health and parasitemia were tracked by Giemsa staining and bright field microscopy. Prior to dispensing parasites for primary screening, 20 nL of test compounds and 10 nL of control compounds (artemisinin and DMSO) were seeded per well using an Echo 550 acoustic dispenser (Labcyte) for final assay concentrations of 5 and 10 μM, respectively. When parasite cultures reached 3% to 8% parasitemia, as determined by a blood smear, infected blood was centrifuged at 800g for 5 min. […] From this blood mixture, 8 μL was dispensed per well in 1536-well, white, solid-bottom plates (789173-F, Greiner) using a MultiFlo FX Multi-Mode dispenser (BioTek). Plates were covered with a porous metal lid and incubated at 37 °C inside large plastic Ziploc bags filled with a blood gas mixture (3% O2, 5% CO2, and 92% N2) for 96 h. To prevent evaporation, a clean tray of water was included within each bag. Following incubation, BrightGlo was prepared by manufacturer specifications and dispensed at 2 μL per well using the MultiFlo dispenser. Plates were left for 20 min before being read with the ViewLux uHTS microplate imager (PerkinElmer) with a 90 s exposure time at the High Sensitivity Luminescence setting. Raw data were processed using GeneData (v12.0.5), whereby activity was normalized to negative minus positive controls. The correction of Runwise Pattern (Multiplicative) was applied, and compounds were considered hits when activity was reduced by ≥70%. […] Also, plates tested in 11-point dose response format were incubated at both 48 a The primary assay was run at a compound concentration of 5 μM. Briefly, 8 μL of an ABS parasite mixture (∼10,000 parasites) was dispensed into 1536-well plates previously spotted with 64,811 GHCDL compounds (the remaining 3642 library compounds arrived later and were evaluated separately). After a 96 h incubation, 2 μL of luciferin (BrightGlo) was added, and the luminescent signal was measured. Bioluminescence was normalized to DMSO (negative control) and artemisinin-treated (positive control) wells for the single point screens. For this primary screen, assay fidelity was determined on a per plate basis using both the Z′-factor and the potency variance of the positive (artemisinin) and negative (DMSO) controls. The mean Z′ value was 0.60 (range of 0.43–0.75), with only one plate falling below our ideal 0.5 threshold (Figure S1).

Setting [6] is: read-out: Stg V Gam dose response IC50 (µM) (n=3), 10-point dose response, n=3, 72 h.
Where [7] appears, read: DD2, read-out: CDD P. falciparum Luciferase ABS 11-pt Reconfirmation Dose Response (48hr): IC50 (μM), 11-pt dose response, 48hr.
The mark [8] stands for this setting: DD2, 8-pt dose response, 96hr, read-out: CDD P. falciparum Luciferase ABS 8-pt Reconfirmation Dose Response (96hr): IC50.
Setting [9] is: DD2, 11-pt dose response, 48hr, read-out: CDD P. falciparum Luciferase ABS 11-pt Reconfirmation Dose Response (48hr): Maximum inhibition (%).
Setting [10] is: DD2, 11-pt dose response, 96hr, read-out: CDD P. falciparum Luciferase ABS 11-pt Reconfirmation Dose Response (96hr): IC50.
[11] abbreviates: DD2, 11-pt dose response, 96hr, read-out: CDD P. falciparum Luciferase ABS 11-pt Reconfirmation Dose Response (96hr): Maximum inhibition (%).
[12] abbreviates: Sybr Green I, read-out: CDD P. falciparum Sybr Green I ABS 11-pt Reconfirmation Dose Response (96hr): IC50.
The mark [13] stands for this setting: DD2, 8-pt dose response, 96hr, read-out: P. falciparum Luciferase ABS 8-pt Reconfirmation Dose Response (96hr): IC50.
The mark [14] stands for this setting: DD2, 8-pt dose response, 96hr, read-out: P. falciparum Luciferase ABS 8-pt Reconfirmation Dose Response (96hr): Maximum inhibition (%).
The mark [15] stands for this setting: DD2, 8-pt dose response, 96hr, read-out: CDD P. falciparum Luciferase ABS 8-pt Reconfirmation Dose Response (96hr): Maximum inhibition (%).
Setting [16] is: Sybr Green I, read-out: CDD P. falciparum Sybr Green I ABS 11-pt Reconfirmation Dose Response (96hr): Maximum inhibition (%).

By IC50 is commonly meant the midpoint of a concentration-inhibition curve. As to `COCCCNC1N=C(n2nc(C)cc2C)Nc2sc3c(c21)CCCC3` (stereo not shown) [DDD01037467, COCCCNC1N=C(NC2=C1C1=C(CCCC1)S2)N1N=C(C)C=C1C], the IC50 in experiment [1] (read-out: GAM V IC50, stage V gametocytes, 72 h) stood at 0.34 µM; in experiment [1] (setting [6]), 0.344 µM. Further, the inhibition at 2 µM in experiment [2] is 2.66%.
Regarding `CCNc1ccnc(CN2CCCC2C(=O)Nc2nccs2)c1` (stereo not shown) [DDD01068941], the IC50 in experiment [3] (setting [7]) was determined as 0.73 µM; in experiment [3] (setting [8]), 0.48 µM; in experiment [3] (setting [10]) it was 0.407 µM; in experiment [4] (setting [12]) it was 1650 nM. Also, the Emax in experiment [3] (setting [9]) was 92.3%; in experiment [3] (setting [11]), 99.6%. The inhibition at 2 µM in experiment [2] stood at 1.3%.
`Cc1cn2c(n1)C(CNCC1=Cc3ccccc3OC1)CCC2` (stereo not shown) [DDD01073292, CC1=CN2CCCC(CNCC3=CC4=CC=CC=C4OC3)C2=N1]: the concentration for half-maximal inhibition (IC50) in experiment [3] (DD2, read-out: P. falciparum Luciferase ABS 11-pt Reconfirmation Dose Response (48hr): IC50, 11-pt dose response, 48hr) amounted to 4.19 µM; in experiment [3] (setting [13]), 1.65 µM; in experiment [3] (DD2, 11-pt dose response, 96hr, read-out: P. falciparum Luciferase ABS 11-pt Reconfirmation Dose Response (96hr): IC50), 1.84 µM; in experiment [4] (read-out: P. falciparum Sybr Green I ABS 11-pt Reconfirmation Dose Response (96hr): IC50), 2320 nM; in experiment [1] (setting [6]), 1.31 µM. In addition, the Emax in experiment [3] (setting [14]) stood at 93%; in experiment [3] (DD2, 11-pt dose response, 96hr, read-out: P. falciparum Luciferase ABS 11-pt Reconfirmation Dose Response (96hr): Maximum inhibition (%)), 99.3%; in experiment [4] (read-out: P. falciparum Sybr Green I ABS 11-pt Reconfirmation Dose Response (96hr): Maximum inhibition (%)), 83.8%. For the same compound, the inhibition at 2 µM in experiment [1] is 66%; in experiment [2], -0.92%.
With `COc1cccc(CNc2cc(C)nc(-c3ccncc3)n2)c1OC` [DDD01073393], the IC50 in experiment [3] (setting [7]) came out at 4.09 µM; in experiment [3] (setting [8]) it was 0.56 µM; in experiment [3] (setting [10]), 0.0383 µM; in experiment [4] (setting [12]) it was 589 nM. The Emax is 94.5% in experiment [3] (setting [15]), 80% in experiment [3] (setting [9]), 98.2% in experiment [3] (setting [11]) and 75.8% in experiment [4] (setting [16]). The inhibition at 2 µM in experiment [2] is -4.44%.
With `O=C(CN1CCCC(c2ccn[nH]2)C1)Nc1nc2c(s1)CCCC2` (stereo not shown) [DDD01079490], the IC50 in experiment [3] (setting [7]) stood at 0.452 µM; in experiment [3] (setting [8]), 0.28 µM; in experiment [3] (setting [10]) it was 0.266 µM; in experiment [4] (setting [12]), 810 nM. For the same compound, the Emax was 89.3% in experiment [3] (setting [15]), 82.4% in experiment [3] (setting [9]), 97% in experiment [3] (setting [11]) and 69.6% in experiment [4] (setting [16]). In addition, the inhibition at 2 µM in experiment [2] is 7.13%.
In the case of `c1cc(-c2n[nH]cc2-c2ccnc(N3CCCC3)n2)ccn1` [DDD01235828], the 50% inhibitory concentration (IC50) in experiment [3] (setting [7]) was above 4.16 µM; in experiment [3] (setting [10]), 0.167 µM; in experiment [3] (96 h incubation, Dd2 luciferase, read-out: 96 hour Pfluc IC50), 0.17 µM; in experiment [4] (setting [12]), 37 nM; in experiment [5], 61.8 nM. The Emax in experiment [3] (setting [15]) was found to be 91%; in experiment [3] (setting [9]) it was 53.9%; in experiment [3] (setting [11]), 92%; in experiment [4] (setting [16]) it was 79.4%.
Turning to `CC1(c2ccccc2)CCCN(Cc2cncn2C2CCCC2)C1` (stereo not shown) [DDD01246491, CC1(CCCN(CC2=CN=CN2C2CCCC2)C1)C1=CC=CC=C1], the IC50 in experiment [1] (setting [6]) came to 2.65 µM. The inhibition at 2 µM in experiment [1] is 55.4%; in experiment [2], -6.73%.
As for `Fc1ccc(N2CCCN(c3ccc(Cn4ccnc4)cn3)CC2)cc1` [DDD01247581], the inhibition at 2 µM in experiment [2] was 3.83%.
Still for that read-out and setting: to `COc1ccc(-c2cc(CNc3ncnc4c3CCNCC4)no2)cc1` [DDD01252258] belongs 4.02%; to `CC(Nc1ncnc2c1CCNC2)c1ccc2c(c1)CCCC2` (stereo not shown) [DDD01252547], 0.573%; to `Cc1csc2ncnc(N3CCC(Cn4cc(C(C)(C)N)nn4)CC3)c12` [DDD01257281], 4.6%.
Regarding `Nc1nc(CCC(=O)N2CCOC(CC3CCCCC3)C2)cs1` (stereo not shown) [DDD01258215], in experiment [2], the inhibition at 2 µM was -10.6%.
Same read-out and setting: for `CC(=O)c1ccc(N2CCC(CO)(CCOc3ccccc3)CC2)nc1` [DDD01258288] the value was 17.5%; for `Cc1nc(N2CC[C@@H](NC(=O)c3cnccn3)[C@H](O)C2)c2ccsc2n1` [DDD01258299], -14.6%; for `COc1cc(CNCc2ccnc(N3CCCCC3)c2)cc(OC)c1` [DDD01297270], -2.79%.
For `CCc1cccc(N2CCC(NC(=O)c3ccco3)CC2)c1` [DDD01299802], the inhibition at 2 µM in experiment [2] was 4.14%.
For `COc1cccc(CN2CCN(c3ccc4nncn4n3)C(C)C2)c1` (stereo not shown) [DDD01301691], the inhibition at 2 µM in experiment [2] was -7.2%.
On to `COc1c(C)cnc(CN2CCC(N(C)C(C)C(N)=O)CC2)c1C` (stereo not shown) [DDD01301801], for which the 50% inhibitory concentration (IC50) in experiment [3] (setting [13]) was 1.63 µM. In addition, the Emax in experiment [3] (setting [14]) was 76.5%. Besides, the inhibition at 2 µM in experiment [2] was found to be 1.63%.
With `Cc1noc(NC(=O)c2ccc(Br)s2)n1` [DDD01302055], the inhibition at 2 µM in experiment [2] came to 5.11%.
For `Cn1cc(NS(=O)(=O)c2ccc(OC(F)(F)F)cc2)ccc1=O` [DDD01303273], the inhibition at 2 µM in experiment [2] was -4.65%.
Take `CC(C)N(CC(N)=O)Cc1csc(COc2ccc(F)cc2)n1` [DDD01303358]: the inhibition at 2 µM in experiment [2] was found to be 6.02%.
As for `Cc1ccoc1C(=O)NC1CCN(Cc2csc3c(F)cccc23)CC1` [DDD01304087], the inhibition at 2 µM in experiment [2] was -2.96%.
